Measurements: the CheMixHub viscosity set
Values joined by “and” are separate entries in the source; they are usually repeats but may differ in a detail not shown here. Equal values may be shown once. ± gives the uncertainty stated by the source.

Assay: xn = mol fraction of the nth substance listed

Cc1ccc(C(C)C)c(O)c1 + CCCCCCCC(=O)O
100 kPa, x2 = 0.579
Conditions	viscosity [mPa·s]
293.15 K	9.71 ± 0.09
298.15 K	8 ± 0.08
303.15 K	6.68 ± 0.06
308.15 K	5.65 ± 0.05
313.15 K	4.83 ± 0.05
318.15 K	4.17 ± 0.04
323.15 K	3.64 ± 0.04

CCCN(CCC)CCC + C1COCCO1
Conditions	viscosity [mPa·s]
303.15 K, 101 kPa, x1 = 0.0198	1.045 ± 0.0077

CC[n+]1ccn(C)c1.NCC(=O)[O-] + CCn1cc[n+](C)c1.N#C[C-](C#N)C#N
Conditions	viscosity [mPa·s]
313.15 K, 101 kPa, x2 = 0.5001	22.25 ± 2.3

CCCCCCCCCCN + C1CCCCC1
303.15 K, 101 kPa
Conditions	viscosity [mPa·s]
x2 = 0.2056	1.562 ± 0.017
x2 = 0.3987	1.361 ± 0.015
x2 = 0.5065	1.239 ± 0.014
x2 = 0.5875	1.159 ± 0.013
x2 = 0.7947	0.9708 ± 0.011

[Br-].[K+] + O
Conditions	viscosity
293.15 K, 101.3 kPa, x1 = 0.0009	0.9993 ± 0.021 mPa·s
293.15 K, 101.3 kPa, x1 = 0.0018	0.9961 ± 0.021 mPa·s
293.15 K, 101.3 kPa, x1 = 0.00893	0.9721 ± 0.021 mPa·s
293.15 K, 101.3 kPa, x1 = 0.03478	0.9229 ± 0.02 mPa·s
293.15 K, 101.3 kPa, x1 = 0.05127	0.9162 ± 0.019 mPa·s
293.15 K, 101.3 kPa, x1 = 0.06722	0.9253 ± 0.02 mPa·s
298.15 K, 100 kPa, x1 = 0.002229	0.8854 ± 0.016 mPa·s
298.15 K, 100 kPa, x1 = 0.004266	0.8805 ± 0.016 mPa·s
298.15 K, 100 kPa, x1 = 0.008299	0.8743 ± 0.015 mPa·s
298.15 K, 100 kPa, x1 = 0.03864	0.8498 ± 0.015 mPa·s
298.15 K, 101.3 kPa, x1 = 0.0009	0.8884 ± 0.019 mPa·s and 0.8888 ± 0.0085 mPa·s
298.15 K, 101.3 kPa, x1 = 0.001798	0.8873 ± 0.0084 mPa·s
298.15 K, 101.3 kPa, x1 = 0.0018	0.8862 ± 0.019 mPa·s
298.15 K, 101.3 kPa, x1 = 0.00359	0.8842 ± 0.0084 mPa·s
298.15 K, 101.3 kPa, x1 = 0.005732	0.8803 ± 0.0084 mPa·s
298.15 K, 101.3 kPa, x1 = 0.008927	0.8746 ± 0.0083 mPa·s
298.15 K, 101.3 kPa, x1 = 0.00893	0.8692 ± 0.018 mPa·s
298.15 K, 101.3 kPa, x1 = 0.01421	0.8666 ± 0.0083 mPa·s
298.15 K, 101.3 kPa, x1 = 0.0177	0.8529 ± 0.018 mPa·s
298.15 K, 101.3 kPa, x1 = 0.02116	0.8588 ± 0.0082 mPa·s
298.15 K, 101.3 kPa, x1 = 0.03478	0.8352 ± 0.018 mPa·s
298.15 K, 101.3 kPa, x1 = 0.05127	0.8342 ± 0.018 mPa·s
303.15 K, 101.3 kPa, x1 = 0.0009	0.7962 ± 0.017 mPa·s
303.15 K, 101.3 kPa, x1 = 0.0018	0.7947 ± 0.017 mPa·s
303.15 K, 101.3 kPa, x1 = 0.00893	0.7827 ± 0.017 mPa·s
303.15 K, 101.3 kPa, x1 = 0.03478	0.7609 ± 0.016 mPa·s
303.15 K, 101.3 kPa, x1 = 0.05127	0.7639 ± 0.016 mPa·s
303.15 K, 101.3 kPa, x1 = 0.06722	0.7781 ± 0.017 mPa·s
308.15 K, 101.3 kPa, x1 = 0.0009	0.7187 ± 0.015 mPa·s and 0.7188 ± 0.007 mPa·s
308.15 K, 101.3 kPa, x1 = 0.001798	0.7187 ± 0.007 mPa·s
308.15 K, 101.3 kPa, x1 = 0.0018	0.7177 ± 0.015 mPa·s
308.15 K, 101.3 kPa, x1 = 0.00359	0.7178 ± 0.007 mPa·s
308.15 K, 101.3 kPa, x1 = 0.005732	0.7165 ± 0.007 mPa·s
308.15 K, 101.3 kPa, x1 = 0.008927	0.7145 ± 0.007 mPa·s
308.15 K, 101.3 kPa, x1 = 0.00893	0.7095 ± 0.015 mPa·s
308.15 K, 101.3 kPa, x1 = 0.01421	0.7121 ± 0.007 mPa·s
308.15 K, 101.3 kPa, x1 = 0.0177	0.7021 ± 0.015 mPa·s
308.15 K, 101.3 kPa, x1 = 0.02116	0.7104 ± 0.0069 mPa·s
308.15 K, 101.3 kPa, x1 = 0.03478	0.6969 ± 0.015 mPa·s
308.15 K, 101.3 kPa, x1 = 0.05127	0.7029 ± 0.015 mPa·s
308.15 K, 101.3 kPa, x1 = 0.06722	0.7189 ± 0.015 mPa·s
312.45 K, 100 kPa, x1 = 0.002229	0.661 ± 0.012 mPa·s
312.85 K, 100 kPa, x1 = 0.01672	0.6499 ± 0.011 mPa·s
313.55 K, 100 kPa, x1 = 0.03864	0.6449 ± 0.011 mPa·s
313.85 K, 100 kPa, x1 = 0.004266	0.6426 ± 0.011 mPa·s
313.95 K, 100 kPa, x1 = 0.008299	0.6399 ± 0.011 mPa·s
318.15 K, 101.3 kPa, x1 = 0.0009	0.5963 ± 0.013 mPa·s and 0.5961 ± 0.006 mPa·s
318.15 K, 101.3 kPa, x1 = 0.001798	0.5966 ± 0.006 mPa·s
318.15 K, 101.3 kPa, x1 = 0.0018	0.596 ± 0.013 mPa·s
318.15 K, 101.3 kPa, x1 = 0.00359	0.5969 ± 0.006 mPa·s
318.15 K, 101.3 kPa, x1 = 0.005732	0.5913 ± 0.0059 mPa·s
318.15 K, 101.3 kPa, x1 = 0.008927	0.5975 ± 0.006 mPa·s
318.15 K, 101.3 kPa, x1 = 0.00893	0.5928 ± 0.013 mPa·s
318.15 K, 101.3 kPa, x1 = 0.01421	0.5983 ± 0.006 mPa·s
318.15 K, 101.3 kPa, x1 = 0.0177	0.5908 ± 0.013 mPa·s
318.15 K, 101.3 kPa, x1 = 0.02116	0.5998 ± 0.006 mPa·s
318.15 K, 101.3 kPa, x1 = 0.03478	0.593 ± 0.013 mPa·s
318.15 K, 101.3 kPa, x1 = 0.05127	0.6036 ± 0.013 mPa·s
318.15 K, 101.3 kPa, x1 = 0.06722	0.6221 ± 0.013 mPa·s
321.85 K, 100 kPa, x1 = 0.002229	0.5597 ± 0.01 mPa·s
322.75 K, 100 kPa, x1 = 0.01672	0.5528 ± 0.0098 mPa·s
322.95 K, 100 kPa, x1 = 0.004266	0.552 ± 0.0099 mPa·s

CC(N)C(=O)O (stereo unspecified) + O
viscosity, 101 kPa
Conditions	x1 = 0.0004	x1 = 0.0007	x1 = 0.001	x1 = 0.0018	x1 = 0.0022	x1 = 0.0025	x1 = 0.0029	x1 = 0.0032	x1 = 0.0036
293.15 K	1.006 ± 0.021 mPa·s	1.012 ± 0.021 mPa·s	1.017 ± 0.021 mPa·s and 1.022 ± 0.021 mPa·s	–	–	1.038 ± 0.021 mPa·s	1.043 ± 0.021 mPa·s	–	–
298.15 K	0.8956 ± 0.021 mPa·s	0.9003 ± 0.021 mPa·s	0.9054 ± 0.021 mPa·s	0.915 ± 0.021 mPa·s	0.9199 ± 0.021 mPa·s	0.9246 ± 0.021 mPa·s	0.929 ± 0.021 mPa·s	0.934 ± 0.021 mPa·s	0.9389 ± 0.021 mPa·s
303.15 K	0.8028 ± 0.021 mPa·s	0.8077 ± 0.021 mPa·s	0.8122 ± 0.021 mPa·s	0.8213 ± 0.021 mPa·s	0.8256 ± 0.021 mPa·s	0.8299 ± 0.021 mPa·s	0.8341 ± 0.021 mPa·s	0.8382 ± 0.021 mPa·s	0.8429 ± 0.021 mPa·s
308.15 K	0.7254 ± 0.021 mPa·s	0.7303 ± 0.021 mPa·s	0.7349 ± 0.021 mPa·s	0.7436 ± 0.021 mPa·s	0.7478 ± 0.021 mPa·s	0.7519 ± 0.021 mPa·s	0.7558 ± 0.021 mPa·s	0.7599 ± 0.021 mPa·s	0.7635 ± 0.021 mPa·s
313.15 K	0.6592 ± 0.021 mPa·s	0.6641 ± 0.021 mPa·s	0.6726 ± 0.021 mPa·s	0.6767 ± 0.021 mPa·s	0.6804 ± 0.021 mPa·s	–	0.688 ± 0.021 mPa·s	0.6916 ± 0.021 mPa·s	0.6953 ± 0.021 mPa·s
